Structures can show the parent of a compound that is named as a salt.
Key:
[1] = target: FGFR3-BAIAP2L1 Ba/F3 cells (Homo sapiens, UniProt P22607); experiment: Ba/F3 cell viability assay (CellTiter-Glo 2.0), FGFR3-BAIAP2L1 Ba/F3; format: cell-based; settings: for Ba/F3 FGFR1/FGFR3 Selectivity: FGFR3 > FGFR1 selectivity ratio in Ba/F3 FGFR fusion cell based assays; for IC50: read-out: Ba/F3 Cells FGFR3 (IC50 nM), FGFR3-BAIAP2L1 Ba/F3 cells, 48 hours, Cell Titer Glo 2.0
In short: (§1)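 Viability read as ATP luminescence (CellTiter-Glo 2.0) after 48 h compound exposure, normalized to DMSO-treated cells and fitted with a 4-parameter curve for IC50. Cells: Ba/F3 dependent on FGFR1-BCR or FGFR3-BAIAP2L1 fusion kinase; top dose 30 μM, 10-fold steps, 9 doses in triplicate.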

[2] = test system: UM-UC-14 cells (FGFR3(S249C)); experiment: UM-UC-14 cancer cell line cell viability assay (CellTiter-Glo 2.0); format: cell-based; settings: UMUC14, 72 hours, Cell Titer Glo 2.0
Excerpt: (§2) Experimental Purpose: To detect the change of intracellular ATP by Cell Titer-Glo® and to evaluate the inhibitory effect of the compounds on cancer cell lines by determining the in vitro IC50 value of the compounds.
(§3) Cell Titer-Glo® 2.0 Luminescent cell viability assay reagent was purchased from Promega (Madison, WI). RT112/84 and KG-1 cell lines were purchased from American Type Culture Collection (Manassas, VA). UM-UC-14 cell line was purchased from Sigma (St. Louis, MO). RT112/84, UM-UC-14, and KG-1 cells were cultured in RPMI1640 media supplemented with 10% fetal bovine serum. Cultures were maintained at 37° C. in a humidified atmosphere of 5% C02 and 95% air.
(§4) Cell Viability Assay Procedure: Cells were plated in 96-well clear bottom/white plates (Corning #3903) at 10,000 cells/well in 100 μl of media, incubated overnight. The next day, test compound DMSO stock solutions were made at 10 mM and 2 μM final concentration. Compounds were then added to cells in a 9-dose, 10-fold dilution series starting at 30 μM with an HP 300e Digital Dispenser (each dose was applied in triplicate). DMSO was backfilled to each well up to 301 nL total volume of test compound+DMSO, and a total of 301 nL DMSO was added to a control/no test compound well in triplicate. The cells in cell culture plates were incubated with the compounds at 37° C. and 5% C02 for 72 hours. Then 50 μl of Cell Titer Glo 2.0 reagent was added to each well of the cell culture plates. The contents were covered from light and mixed on an orbital shaker at room temperature for 10 min. Luminescence was recorded by a Synergy H1 Microplate Reader (Biotek, Winooski, VT). Cells were assessed as a percentage of DMSO only treated control cells. Curves were plotted and IC50 values were calculated using the GraphPad Prism 8 program based on a sigmoidal dose-response equation (4 parameter).

FGFR1 = FGFR1 (Homo sapiens (Human), UniProt P11362); experiment: Kinase assay, binding constants (Kd), kinase-tagged T7 phage, qPCR
In short: (§5)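 Kinase-tagged T7 phage (grown in BL21-derived E. coli) competed with test compound for immobilized biotinylated ligand on streptavidin beads. Kds came from an 11-point 3-fold dilution series at 0.9% final DMSO. Bound kinase was eluted with non-biotinylated ligand and quantified by qPCR, with Hill slope fixed at −1.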

FGFR3 = FGFR3 (Homo sapiens (Human), UniProt P22607); experiment: as above
In short: as §5

FGFR2 = FGFR2 (Homo sapiens (Human), UniProt P21802); experiment: as above
In short: as §5

FGFR3 (V555M) = FGFR3 (V555M) (Homo sapiens (Human), UniProt P22607, V555M); experiment: as above; settings: V555M mutant
In short: as §5

FGFR4 = FGFR4 (Homo sapiens (Human), UniProt P22455); experiment: as above
In short: as §5

FGFR1-BCR Ba/F3 cells = FGFR1-BCR Ba/F3 cells (Homo sapiens, UniProt P11362); experiment: Ba/F3 cell viability assay (CellTiter-Glo 2.0), FGFR1-BCR Ba/F3; format: cell-based; settings: read-out: Ba/F3 Cells FGFR1 (IC50 nM), 48 hours, Cell Titer Glo 2.0
In short: as §1

[3] = test system: KG-1 cells (FGFR1-fusion); experiment: KG-1 cancer cell line cell viability assay (CellTiter-Glo 2.0); format: cell-based; settings: Homo sapiens, 72 hours, Cell Titer Glo 2.0
Excerpt: as §2, §3, §4

[4] = test system: RT112/84 cells (FGFR3-fusion); experiment: RT112/84 cancer cell line cell viability assay (CellTiter-Glo 2.0); format: cell-based; settings: Homo sapiens, 72 hours, Cell Titer Glo 2.0
Excerpt: as §2, §3, §4

Chain of FGFR4 (P22455 22-802): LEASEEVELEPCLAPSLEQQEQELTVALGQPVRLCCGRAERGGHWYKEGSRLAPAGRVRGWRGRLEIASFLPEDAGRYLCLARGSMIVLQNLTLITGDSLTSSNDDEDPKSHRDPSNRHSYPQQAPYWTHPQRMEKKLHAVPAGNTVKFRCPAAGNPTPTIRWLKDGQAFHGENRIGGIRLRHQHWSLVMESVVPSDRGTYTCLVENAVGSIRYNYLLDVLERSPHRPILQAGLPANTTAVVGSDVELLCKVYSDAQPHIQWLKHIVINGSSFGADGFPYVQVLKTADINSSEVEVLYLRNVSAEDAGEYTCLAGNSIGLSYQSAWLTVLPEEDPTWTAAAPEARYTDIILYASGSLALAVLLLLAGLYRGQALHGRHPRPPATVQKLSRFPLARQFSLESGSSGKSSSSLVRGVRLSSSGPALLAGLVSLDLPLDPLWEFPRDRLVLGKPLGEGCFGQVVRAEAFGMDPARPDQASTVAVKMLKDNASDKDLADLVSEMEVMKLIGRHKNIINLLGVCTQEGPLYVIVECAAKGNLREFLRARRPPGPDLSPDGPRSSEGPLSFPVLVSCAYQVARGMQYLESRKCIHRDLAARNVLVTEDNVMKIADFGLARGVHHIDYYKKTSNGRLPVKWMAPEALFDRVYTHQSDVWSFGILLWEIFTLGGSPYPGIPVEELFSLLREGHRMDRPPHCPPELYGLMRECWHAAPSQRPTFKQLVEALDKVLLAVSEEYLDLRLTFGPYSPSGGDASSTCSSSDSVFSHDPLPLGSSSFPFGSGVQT
Chain of FGFR1-BCR Ba/F3 cells (P11362 22-822 limits assumed, change not shown): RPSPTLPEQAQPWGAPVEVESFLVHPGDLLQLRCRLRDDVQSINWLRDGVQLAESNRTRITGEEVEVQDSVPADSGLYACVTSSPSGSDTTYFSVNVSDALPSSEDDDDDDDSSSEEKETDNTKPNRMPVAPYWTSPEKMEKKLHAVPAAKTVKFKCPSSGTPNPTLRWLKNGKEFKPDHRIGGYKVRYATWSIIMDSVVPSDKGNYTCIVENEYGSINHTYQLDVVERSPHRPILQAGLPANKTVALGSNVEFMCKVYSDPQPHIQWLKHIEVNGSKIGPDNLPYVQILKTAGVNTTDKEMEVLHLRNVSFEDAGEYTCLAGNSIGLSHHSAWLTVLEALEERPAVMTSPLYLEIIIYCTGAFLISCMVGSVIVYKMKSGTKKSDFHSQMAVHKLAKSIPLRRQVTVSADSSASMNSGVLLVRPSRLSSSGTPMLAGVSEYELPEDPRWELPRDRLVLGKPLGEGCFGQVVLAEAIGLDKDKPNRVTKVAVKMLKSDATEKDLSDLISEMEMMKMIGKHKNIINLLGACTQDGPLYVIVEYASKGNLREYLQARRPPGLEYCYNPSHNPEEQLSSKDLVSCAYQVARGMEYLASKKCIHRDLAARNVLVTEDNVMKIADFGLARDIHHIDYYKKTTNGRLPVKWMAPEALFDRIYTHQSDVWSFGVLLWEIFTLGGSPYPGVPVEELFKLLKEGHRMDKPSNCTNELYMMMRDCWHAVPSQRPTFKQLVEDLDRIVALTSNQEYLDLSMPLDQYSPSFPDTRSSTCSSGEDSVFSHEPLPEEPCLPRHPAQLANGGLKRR
Chain of FGFR1 (P11362 22-822): as the sequence (P11362 22-822 limits assumed, change not shown) above
Chain of FGFR3-BAIAP2L1 Ba/F3 cells (P22607 23-806 limits assumed, change not shown): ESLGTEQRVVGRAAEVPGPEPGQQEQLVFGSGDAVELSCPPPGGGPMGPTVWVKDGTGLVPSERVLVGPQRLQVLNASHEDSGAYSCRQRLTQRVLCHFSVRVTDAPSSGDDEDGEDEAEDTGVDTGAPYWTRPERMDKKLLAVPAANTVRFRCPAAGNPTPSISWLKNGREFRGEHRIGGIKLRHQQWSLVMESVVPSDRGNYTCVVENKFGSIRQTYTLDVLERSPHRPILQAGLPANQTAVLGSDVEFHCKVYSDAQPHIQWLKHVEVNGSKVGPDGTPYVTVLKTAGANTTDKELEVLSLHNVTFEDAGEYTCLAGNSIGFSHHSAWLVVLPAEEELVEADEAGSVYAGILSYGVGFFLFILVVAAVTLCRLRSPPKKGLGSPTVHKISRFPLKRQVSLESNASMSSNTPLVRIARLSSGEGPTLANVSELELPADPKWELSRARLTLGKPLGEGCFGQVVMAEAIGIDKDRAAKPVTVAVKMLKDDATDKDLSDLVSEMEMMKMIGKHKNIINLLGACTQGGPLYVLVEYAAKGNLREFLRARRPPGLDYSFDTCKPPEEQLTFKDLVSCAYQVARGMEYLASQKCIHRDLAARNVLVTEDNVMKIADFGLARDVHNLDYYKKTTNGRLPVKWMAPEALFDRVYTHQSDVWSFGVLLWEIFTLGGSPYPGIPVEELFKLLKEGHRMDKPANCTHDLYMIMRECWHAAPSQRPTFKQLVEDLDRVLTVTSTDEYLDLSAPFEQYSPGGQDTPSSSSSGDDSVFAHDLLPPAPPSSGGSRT
Chain of FGFR3 (P22607 23-806): as the sequence (P22607 23-806 limits assumed, change not shown) above
Chain of FGFR3 (V555M) (P22607 23-806 V555M): as the sequence (P22607 23-806 limits assumed, change not shown) above, with V533M counted along it
Chain of FGFR2 (P21802 22-821): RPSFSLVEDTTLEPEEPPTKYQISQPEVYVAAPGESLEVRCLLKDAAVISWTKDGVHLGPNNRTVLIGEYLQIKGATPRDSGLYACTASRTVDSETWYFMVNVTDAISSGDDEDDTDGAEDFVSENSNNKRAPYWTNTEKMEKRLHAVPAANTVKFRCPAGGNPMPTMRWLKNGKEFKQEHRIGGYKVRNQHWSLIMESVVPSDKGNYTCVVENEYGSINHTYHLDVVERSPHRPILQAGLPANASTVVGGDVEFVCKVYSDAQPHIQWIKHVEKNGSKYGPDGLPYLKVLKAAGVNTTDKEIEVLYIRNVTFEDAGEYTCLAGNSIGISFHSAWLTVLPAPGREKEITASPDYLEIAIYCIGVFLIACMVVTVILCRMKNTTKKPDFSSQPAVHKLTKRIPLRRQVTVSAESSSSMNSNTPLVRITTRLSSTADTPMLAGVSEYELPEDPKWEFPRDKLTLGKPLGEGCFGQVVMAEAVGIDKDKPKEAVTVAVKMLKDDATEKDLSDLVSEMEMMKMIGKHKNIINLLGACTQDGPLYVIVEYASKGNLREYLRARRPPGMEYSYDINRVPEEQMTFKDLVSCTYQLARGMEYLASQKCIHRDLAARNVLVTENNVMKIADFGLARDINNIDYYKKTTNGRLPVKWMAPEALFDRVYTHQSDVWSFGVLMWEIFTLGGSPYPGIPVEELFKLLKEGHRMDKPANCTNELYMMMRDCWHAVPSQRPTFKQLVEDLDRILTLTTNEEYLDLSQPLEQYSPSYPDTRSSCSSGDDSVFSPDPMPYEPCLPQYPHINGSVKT

SMILES	Ba/F3 FGFR1/FGFR3 Selectivity [1]	IC50 [1] [nM]	IC50 [2] [nM]	Kd (FGFR1) [nM]	Kd (FGFR3) [nM]	Kd (FGFR2) [nM]	Kd (FGFR3 (V555M)) [nM]	Kd (FGFR4) [nM]	IC50 (FGFR1-BCR Ba/F3 cells) [nM]	IC50 [3] [nM]	IC50 [4] [nM]
C[C@@H](Oc1ccc2[nH]nc(-c3ccc(N4CCNCC4)nc3)c2c1)c1c(Cl)cncc1Cl [Example 2, (R)-5-(1-(3,5-Dichloropyridin-4-yl)ethoxy)-3-(6-(piperazin-1-yl)pyridin-3-yl)-1H-indazole dihydrochloride]	15	1 to 20	1 to 20	1 to 20	1 to 20	1 to 20	1 to 20	1 to 20	100 to 300	–	–
CC(Oc1ccc2[nH]nc(-c3ccc(N4CC5(C4)CN(S(C)(=O)=O)C5)nc3)c2c1)c1c(Cl)ccnc1Cl (centres unmarked) [Example 109, 5-[1-(2,4-dichloro-3-pyridyl)ethoxy]-3-[6-(2-methylsulfonyl-2,6-diazaspiro[3.3]heptan-6-yl)-3-pyridyl]-1H-indazole]	12	1 to 20	–	20 to 100	1 to 20	1 to 20	1 to 20	1 to 20	100 to 300	100 to 300	20 to 100
C[C@@H](Oc1ccc2[nH]nc(-c3ccc(N4CC5(CCN(S(C)(=O)=O)C5)C4)nc3)c2c1)c1c(Cl)cncc1Cl [Example 115, 5-[(1R)-1-(3,5-dichloro-4-pyridyl)ethoxy]-3-[6-(7-methylsulfonyl-2,7-diazaspiro[3.4]octan-2-yl)-3-pyridyl]-1H-indazole]	14	1 to 20	–	1 to 20	1 to 20	1 to 20	1 to 20	1 to 20	20 to 100	100 to 300	1 to 20
C[C@@H](Oc1ccc2[nH]nc(-c3ccc(N4CC5(CCS(=O)(=O)C5)C4)nc3)c2c1)c1c(Cl)cncc1Cl [Example 117, 2-[5-[5-[(1R)-1-(3,5-dichloro-4-pyridyl)ethoxy]-1H-indazol-3-yl]-2-pyridyl]-6λ^6-thia-2-azaspiro[3.4]octane 6,6-dioxide]	15	1 to 20	–	1 to 20	1 to 20	1 to 20	1 to 20	1 to 20	20 to 100	20 to 100	1 to 20
C[C@@H](Oc1ccc2[nH]nc(-c3cnc(N4CC5(C4)CN(S(C)(=O)=O)C5)nc3)c2c1)c1c(Cl)cncc1Cl [Example 119, 5-[(1R)-1-(3,5-dichloro-4-pyridyl)ethoxy]-3-[2-(2-methylsulfonyl-2,6-diazaspiro[3.3]heptan-6-yl)pyrimidin-5-yl]-1H-indazole]	9	1 to 20	–	20 to 100	1 to 20	20 to 100	1 to 20	1 to 20	20 to 100	100 to 300	20 to 100
CC(C)S(=O)(=O)N1CC2(CN(c3ncc(-c4n[nH]c5ccc(O[C@H](C)c6c(Cl)cncc6Cl)cc45)cn3)C2)C1 [Example 120, 5-[(1R)-1-(3,5-dichloro-4-pyridyl)ethoxy]-3-[2-(2-isopropylsulfonyl-2,6-diazaspiro[3.3]heptan-6-yl)pyrimidin-5-yl]-1H-indazole]	7	20 to 100	–	20 to 100	1 to 20	20 to 100	1 to 20	1 to 20	100 to 300	> 300	20 to 100

— patent US20240109865A1, “INDAZOLE COMPOUNDS AS KINASE INHIBITORS” (TYRA BIOSCIENCES, INC., priority 2020, published 2024)
